Series [1] relates to Cx43. The experiment in a line: Western blot of HeLa cells expressing Cx43 exposed to 4PB. The conditions noted are these: HeLa cells transfected with Cx43, increasing doses. Format: cell-based. The source says: FIG. 34 illustrates a Western blot where HeLa cells expressing Cx43 have been exposed to increasing doses of 4PB.
4PB is an FDA approved drug that can be administered orally, which is being tested for effectiveness in spinal muscular atrophy (Wirth et al., 2006; Brahe et al., 2005), and cystic fibrosis (Singh et al., 2006). […] In addition, stress in the form of mildly elevated temperatures up-regulates connexin expression and increases the total number of functional channels (VanSlyke and Musil, 2005). The chemical chaperone (4PB), a known inhibitor of histone deacetylase, an enzyme associated with inactivation of gene transcription, increases Cx43 production at concentrations in the mM range and exposure times of hours. Not only is Cx43 production elevated 2-5 fold but enhanced dye transfer is observed (Asklund et al., 2004). […] The present inventors have determined that the time course of coupling between hMSCs or model cells with myocytes reaches 50% of maximum within 48 hours.
A general note: In western blotting, separated proteins are transferred to a membrane and probed.

For series [2], the system named is Cx43, 40, 45. Description: Example 4: chemical chaperone treatment of hMSC/myocyte co-culture, connexin expression and coupling. It is filed as cell-based. The conditions noted are these: initial results. On the procedure: hMSCs and myocytes in co-culture are treated with a chemical chaperone (4 PB, 4-Phenylbutric acid, FDA approved) or zp123 (Rotigaptide) a synthetic antiarrhythmia peptide, that increases Cx43 mediated coupling. Western blot analysis and RT-PCR will be used to test protein abundance and expression for Cx43, 40, 45. Dual whole cell patch clamp will be used to determine the time course of junctional coupling. Western blot analysis and RT-PCR to test for protein abundance and expression for Cx43, 40, 45. The effects of 4PB and zp123 on hMSCs alone and myocytes alone will be assesed. Co-culturing of hMSCS and myocytes (atrial or ventricular) will also be done and a vital dye (Valiunas et al., 2005) will be used on hMSCs so that after defined time intervals of co-culture fluorescence activated cell sorting can be used to isolate the cell types and Western blot analysis and RT-PCR can be performed to assess abundance and expression respectively. A peptidase, such as dipeptidyl-peptidase or equivalent, will be used to cleave any zp123 that is secreted into the extracellular space. Dual whole cell patch clamp will be used to determine the time course of junctional coupling over a 96 hour interval at 24, 48 and 96 hours respectively. […] This should translate into enhanced coupling in the form of increased junctional conductance relative to controls.

The test system of series [3] is Cx43. The conditions noted are these: mM range, exposure times of hours; cited from earlier work.
The target in series [4] is native SCN5A channel (Homo sapiens, UniProt Q14524). Particulars: cited from earlier work.
Sequence of native SCN5A channel (Q14524 whole entry): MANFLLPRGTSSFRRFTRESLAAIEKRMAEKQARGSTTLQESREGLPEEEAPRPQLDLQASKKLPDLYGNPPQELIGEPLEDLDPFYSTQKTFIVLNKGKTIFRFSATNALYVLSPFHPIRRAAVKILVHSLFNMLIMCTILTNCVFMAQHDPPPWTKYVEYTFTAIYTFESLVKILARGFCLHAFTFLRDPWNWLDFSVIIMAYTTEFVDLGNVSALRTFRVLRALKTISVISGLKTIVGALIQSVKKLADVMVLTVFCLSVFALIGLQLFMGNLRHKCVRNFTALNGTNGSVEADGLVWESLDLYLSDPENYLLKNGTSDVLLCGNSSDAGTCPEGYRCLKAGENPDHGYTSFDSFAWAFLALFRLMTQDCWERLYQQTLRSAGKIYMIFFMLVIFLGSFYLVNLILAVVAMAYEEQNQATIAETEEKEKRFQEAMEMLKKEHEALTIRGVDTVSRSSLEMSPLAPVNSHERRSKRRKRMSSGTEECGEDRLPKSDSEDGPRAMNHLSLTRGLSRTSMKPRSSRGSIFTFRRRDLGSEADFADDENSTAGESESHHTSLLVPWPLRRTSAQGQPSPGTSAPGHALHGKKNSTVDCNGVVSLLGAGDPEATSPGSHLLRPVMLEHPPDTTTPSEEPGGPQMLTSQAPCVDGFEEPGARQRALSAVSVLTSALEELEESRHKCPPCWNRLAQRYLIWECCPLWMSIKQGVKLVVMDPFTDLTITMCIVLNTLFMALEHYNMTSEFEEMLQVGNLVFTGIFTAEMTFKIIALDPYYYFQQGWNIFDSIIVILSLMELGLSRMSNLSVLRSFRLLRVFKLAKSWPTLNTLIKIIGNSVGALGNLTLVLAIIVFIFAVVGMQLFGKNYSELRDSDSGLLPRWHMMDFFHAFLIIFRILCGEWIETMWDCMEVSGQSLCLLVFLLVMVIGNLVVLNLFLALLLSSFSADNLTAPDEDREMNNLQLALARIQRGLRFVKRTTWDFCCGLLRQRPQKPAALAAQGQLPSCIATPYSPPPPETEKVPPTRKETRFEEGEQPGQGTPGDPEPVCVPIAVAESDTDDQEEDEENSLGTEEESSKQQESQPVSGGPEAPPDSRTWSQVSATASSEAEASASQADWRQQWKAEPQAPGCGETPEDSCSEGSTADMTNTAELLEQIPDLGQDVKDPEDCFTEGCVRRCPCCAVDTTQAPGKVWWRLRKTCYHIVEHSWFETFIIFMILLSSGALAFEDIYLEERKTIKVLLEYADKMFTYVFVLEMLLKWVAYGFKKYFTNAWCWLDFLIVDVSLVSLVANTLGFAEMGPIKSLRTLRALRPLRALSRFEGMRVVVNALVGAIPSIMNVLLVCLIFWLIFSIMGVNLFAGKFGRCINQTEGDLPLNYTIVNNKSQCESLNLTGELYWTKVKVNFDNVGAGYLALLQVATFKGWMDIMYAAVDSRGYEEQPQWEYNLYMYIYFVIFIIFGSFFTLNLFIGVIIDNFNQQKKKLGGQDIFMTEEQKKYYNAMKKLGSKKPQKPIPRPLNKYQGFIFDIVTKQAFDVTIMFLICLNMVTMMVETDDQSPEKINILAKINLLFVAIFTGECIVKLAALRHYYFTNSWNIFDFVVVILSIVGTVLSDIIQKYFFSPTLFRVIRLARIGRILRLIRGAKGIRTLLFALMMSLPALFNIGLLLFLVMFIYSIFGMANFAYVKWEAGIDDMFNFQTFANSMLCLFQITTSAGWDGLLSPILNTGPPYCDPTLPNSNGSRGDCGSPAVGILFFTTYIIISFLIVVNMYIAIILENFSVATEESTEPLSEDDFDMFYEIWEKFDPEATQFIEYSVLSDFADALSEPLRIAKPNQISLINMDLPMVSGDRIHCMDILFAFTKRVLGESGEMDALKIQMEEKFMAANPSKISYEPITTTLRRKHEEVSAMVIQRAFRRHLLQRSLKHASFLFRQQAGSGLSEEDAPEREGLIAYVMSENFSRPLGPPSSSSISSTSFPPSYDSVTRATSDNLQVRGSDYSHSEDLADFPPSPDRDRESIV
For series [5], the system named is neonatal myocyte cultures. The experiment in a line: Optical recording of CV and maximum pacing frequency in neonatal myocyte cultures. Format: cell-based. The conditions noted are these: high K (10.4 mM), vs GFP cultures. On the procedure: Adenoviral treated neonatal myocyte cultures expressed SkM1 or GFP and were studied in normal and high (10.4 mM) K. Left: The effectiveness of SkM1 expression to maintain high CV persists as pacing frequency increases.
To determine if the gating characteristics of the expressed channel allow this protective effect to persist at higher frequencies, as may occur during reentrant arrhythmias, CV restitution relations in myocyte cultures expressing SkM1 Na channels+GFP and in control cultures (expressing GFP alone) was studied. FIG. 53 illustrates that CV remains greater as frequency increases, both in normal Tyrode's solution and in elevated K solution. Further, in the absence of SkM1, the breakpoint frequency is reduced in high K.

For series [6] the following is noted: cited from earlier work.
Series [7] concerns epicardial border zone. The experiment in a line: Canine infarct epicardial border zone, electrograms and microelectrode study. Format: in vivo, dog. Particulars: 5 d after infarct and injection.
Series [8] concerns neonatal rat ventricular myocyte cultures. The experiment in a line: Conduction velocity in neonatal rat ventricular myocyte cultures on multi-electrode array. Format: cell-based. Particulars: K 5.4 to 10 mM.
In series [9] the test system is hMSCs. Description: Patch clamp of hMSCs expressing SkM1 Na channel. Particulars: expressed in hMSCs. Format: cell-based, human. The source says:
Left: An hMSC transfected with SkM1 was held at potentials between −100 mV and −70 mV and pulsed to 0 mV. Since the current induced from −70 mV is > half the magnitude of the current induced from −100 mV the midpoint of inactivation was positive to −70 mV. Right: hMSCs were held at holding potentials between −100 and −55 mV for 1.5 sec and pulsed to 0 mV for 150 msec. The Boltzmann 2-state fit gives a midpoint of −62.4±3.2 mV and a slope factor of −10.3±3.2 mV.
For research on myocardial infarct-induced ventricular tachycardia, a Na channel gene with a more positive inactivation versus voltage relationship than found normally in cardiac myocytes was required. The skeletal muscle Na channel was investigated because of its reported midpoint of inactivation of −68 mV.
In general terms: In patch-clamp work, channel activity is measured electrically.

The subject of series [10] is neonatal myocytes. The experiment in a line: Action potential upstroke in neonatal myocytes under K depolarization. It is filed as cell-based, rat. As to the method: FIG. 49: Effect of K depolarization on action potential upstroke in neonatal myocytes in the absence and presence of SKM1 expression. […] The elevated K reduced the upstroke to 68% of its control value (mean value after elevated K is 56% of control). Bottom) In an SKM1 expressing myocyte the upstroke is better preserved, measuring 83% of its control value in elevated K.
Top) In GFP but not SkM1 cultures there is a significant effect on CV of increasing K from 5.4 to 10 mM.
Action potentials are recorded using a patch electrode in whole cell mode on cells superfused at 35° C. These experiments are conducted on monolayer cultures when studying control conditions or when employing viral expression, which achieves near uniform expression. For studying transfected cells, the culture is resuspended on the day of experiment and cells selected on the basis of GFP fluorescence, with the GFP being part of the channel vector or co-transfected with a separate vector. Extracellular and pipette solutions are as previously employed. The external solution contains (mM): NaCl 140, KCl 5.4, CaCl2 1, MgCl2 1, HEPES 5, glucose 10, adjusted to pH 7.4. The internal solution contains (mM): aspartic acid 130, KOH 146, NaCl10, CaCl2 2, EGTA 5, HEPES10, MgATP 2, adjusted to pH 7.2. […] Parameters recorded are Vmax, MDP, action potential amplitude (AMP) and APD50.

Series [11] concerns neonatal and adult rat ventricular myocytes. The conditions noted are these: adenoviral expression; cited from earlier work.
The test system of series [12] is hMSCs. Description: Patch clamp of If in hMSCs transfected with mHCN2. It is filed as cell-based, human. The source says:
FIG. 4: Example of loading hMSC with a gene of interest, studying it biophysically and determining its effect on the heart. Panels A-C study functional expression of If in hMSCs transfected via electroporation with mHCN2 gene. If was expressed in hMSCs transfected with the mHCN2 gene (B) but not in nontransfected stem cells (A). C, Fit by the Boltzmann equation to the normalized tail currents of If gives a midpoint of −91.8+/−0.9 mV and a slope of 8.8+/−0.5 mV (n=9). If was fully activated around −140 mV with an activation threshold of −60 mV. […] Voltage protocol was to hold at −30 mV and hyperpolarize for 1.5 seconds to voltages between −40 and −160 mV in 10-mV increments followed by a 1.5-second voltage step to +20 mV to record the tail currents. Panels D-E show function of hMSCs loaded with HCN2 gene 10 days after injection into canine LV anterior wall in dog in complete heart block. Panels D, placebo experiment, dog injected with saline. […] Panels E, dog injected with approximately 1.2 million hMSCs loaded with HCN2.

For `O=C(O)CCCc1ccccc1` [4PB, 4-Phenylbutric acid], the Cx43 expression entry in [1] was “up-regulates Cx43”. Besides, the connexin up-regulation result in [2] is on record as “causes up-regulation”. Further, in [3], the Cx43 production elevated was 2-5 fold.
Consider `[Cd+2]` [Cd^2+], for which the Kd entry in [4] was “a few hundred”.
Regarding “SkM1: skeletal muscle sodium channel, expressed from gene in hMSCs or myocytes”, the “break-point frequency (resistance to rhythm instabilities)” value in series [5] is listed as “higher break-point frequencies”. Also, the inactivation midpoint in series [6] (as stated in Example 16 group description) was −65 mV. Also, the activation midpoint in [6] (as worded) is recorded as −68 mV. Also, the Slope factor in [6] (steady state inactivation) was −5.4 mV; in [9] (Boltzmann 2-state fit), −10.3±3.2 mV. Moreover, the “electrogram at injected epicardial border zone site” value in series [7] is given as “narrow spike”. Also, the “Vmax, injected site 1 vs non-injected site 2” value in series [7] (equivalent membrane depolarization) was “nearly twice that of site 2”. Further, the “effect of membrane depolarization on CV and V′max” value in [8] is “significantly reduces CV and V′max of control cells, but not the SkM1 expressing cells”. The figures for the midpoint of inactivation in [9], in series [9] (listed as skeletal muscle Na channel) and in series [9] (listed as skeletal muscle sodium channel) were −62.4±3.2 mV, −62 mV and −62 mV, respectively. In [10] (10 K), the Vmax is on record as more than 100 V/s. The “action potential upstroke, % of control value” in series [10] (elevated K (10 mM) vs 5.4 mM) is given as 83%.

B1: mHCN2: pacemaker channel gene (protein, UniProt O88703 1-863, looked up)
Potassium/sodium …: MDARGGGGRPGDSPGTTPAPGPPPPPPPPAPPQPQPPPAPPPNPTTPSHPESADEPGPRARLCSRDSACTPGAAKGGANGECGRGEPQCSPEGPARGPKVSFSCRGAASGPSAAEEAGSEEAGPAGEPRGSQASFLQRQFGALLQPGVNKFSLRMFGSQKAVEREQERVKSAGAWIIHPYSDFRFYWDFTMLLFMVGNLIIIPVGITFFKDETTAPWIVFNVVSDTFFLMDLVLNFRTGIVIEDNTEIILDPEKIKKKYLRTWFVVDFVSSIPVDYIFLIVEKGIDSEVYKTARALRIVRFTKILSLLRLLRLSRLIRYIHQWEEIFHMTYDLASAVMRICNLISMMLLLCHWDGCLQFLVPMLQDFPSDCWVSINNMVNHSWSELYSFALFKAMSHMLCIGYGRQAPESMTDIWLTMLSMIVGATCYAMFIGHATALIQSLDSSRRQYQEKYKQVEQYMSFHKLPADFRQKIHDYYEHRYQGKMFDEDSILGELNGPLREEIVNFNCRKLVASMPLFANADPNFVTAMLTKLKFEVFQPGDYIIREGTIGKKMYFIQHGVVSVLTKGNKEMKLSDGSYFGEICLLTRGRRTASVRADTYCRLYSLSVDNFNEVLEEYPMMRRAFETVAIDRLDRIGKKNSILLHKVQHDLSSGVFNNQENAIIQEIVKYDREMVQQAELGQRVGLFPPPPPPQVTSAIATLQQAVAMSFCPQVARPLVGPLALGSPRLVRRAPPGPLPPAASPGPPAASPPAAPSSPRAPRTSPYGVPGSPATRVGPALPARRLSRASRPLSASQPSLPHGVPAPSPAASARPASSSTPRLGPAPTARTAAPSPDRRDSASPGAASGLDPLDSARSRLSSNL
Take B1: in series [11], the “voltage dependence of activation, neonatal vs adult myocytes” value is on record as “about 20 mV”. Moreover, in [12], the activation threshold was −60 mV and the “voltage of full activation” value is given as “around −140 mV”. Moreover, the “midpoint of If activation (Boltzmann fit to tail currents)” value in series [12] (hMSCs transfected via electroporation, n=9) is −91.8+/−0.9 mV. Moreover, the “slope of If activation” value in series [12] (n=9) is given as 8.8+/−0.5 mV.

The values are drawn from patent US20100189701A1, “METHODS AND COMPOSITIONS TO TREAT ARRHYTHMIAS” (priority 2007, published 2010).
